How the values were obtained:
Format in all cases: functional, cell-based
[1] = Cytotoxicity against human MEL-28 cells; conditions: SK-MEL-28
P388 = assay: Cytotoxicity against mouse P388 cells
A549 = assay: Cytotoxicity against human A549 cells
HT-29 = assay: Cytotoxicity against human HT29 cells

Measured: IC50

C=C(C)[C@H]1[C@@H]2C[C@@]3(C)C4=CC[C@H]5C(C)(C)[C@@H](O[C@@H]6OC[C@@H](O)[C@H](O)[C@H]6O[C@@H]6O[C@H](C)[C@@H](O[C@@H]7O[C@H](CO)[C@@H](O)[C@H](O[C@@H]8OC[C@@H](O)[C@H](OC)[C@H]8O)[C@H]7O)[C@H](O)[C@H]6O[C@@H]6O[C@H](C)[C@@H](O)[C@H](O)[C@H]6O)CC[C@]5(C)[C@@H]4CC[C@]13C(=O)O2
5 mg/L: [1] | P388 | A549 | HT-29

C=C(C)[C@H]1[C@@H]2C[C@@]3(C)C4=CC[C@H]5C(C)(C)[C@@H](O[C@@H]6OC[C@@H](O)[C@H](O)[C@H]6O[C@@H]6O[C@H](C)[C@@H](O[C@@H]7O[C@H](CO)[C@@H](O)[C@H](O[C@@H]8OC[C@@H](O)[C@H](OC)[C@H]8O)[C@H]7O)[C@H](O)[C@H]6O[C@@H]6O[C@H](CO)[C@@H](O)[C@H](O)[C@H]6O)CC[C@]5(C)[C@@H]4CC[C@]13C(=O)O2
5 mg/L: [1] | P388 | A549 | HT-29

Source: ChEMBL document CHEMBL1155657, “Triterpene glycosides from the Far-Eastern sea cucumber Pentamera calcigera. 1. Monosulfated glycosides and cytotoxicity of their unsulfated derivatives” (J Nat Prod, 2000)
